Legend:
[1] = system: patients with seasonal allergic rhinitis (SAR); assay: MP 428 study: adverse events, Safety Population; format: in vivo, human
Method: A two-week, randomized, double-blind study, which evaluated the effects of the co-administration of ASTELIN® (azelastine hydrochloride (HCl)) and FLONASE® (fluticasone propionate) compared to either product alone in patients with seasonal allergic rhinitis (SAR) was conducted during the 2006 Texas mountain cedar season. After a 5-day placebo lead-in period, 151 patients with moderate-to-severe allergic rhinitis symptoms were randomized to either: (1) (49 total patients) ASTELIN® (azelastine hydrochloride (HCl)) plus placebo saline nasal spray 2 sprays per nostril, 15 minutes apart, twice daily (AM & PM); (2) (50 total patients) FLONASE® (fluticasone propionate) plus placebo saline nasal spray, 2 sprays per nostril, 15 minutes apart, once daily (AM) and two sessions of placebo saline nasal spray, 2 sprays per nostril, 15 minutes apart (PM); or (3) (52 total patients) the co-administration of ASTELIN® (azelastine hydrochloride (HCl)) 2 sprays per nostril plus FLONASE® (fluticasone propionate) 2 sprays per nostril (AM), 15 minutes apart, and ASTELIN® (azelastine hydrochloride (HCl)) 2 sprays per nostril plus placebo saline nasal spray, 15 minutes apart, (PM) for a 2-week double-blind treatment period.
The most common adverse events (AEs) were bitter taste (8.2% in ASTELIN® (azelastine hydrochloride (HCl)) group, 2.0% in FLONASE® (fluticasone propionate) group, 13.5% in co-administration group) and headache (4.1% in ASTELIN® (azelastine hydrochloride (HCl)) group, 4.0% in FLONASE® (fluticasone propionate) group, 5.8% in co-administration group). No other AE was reported by more than one patient in any treatment group. There were no discontinuations due to AEs.

[2] = system: patients with seasonal allergic rhinitis (SAR); assay: MP 428 study: Adult Rhinoconjunctivitis Quality of Life Questionnaire outcomes, change from baseline; format: in vivo, human; conditions: Day 14/ET; Intent-to-Treat Population

## CCC(=O)O[C@]1(C(=O)SCF)[C@H](C)C[C@H]2[C@@H]3C[C@H](F)C4=CC(=O)C=C[C@]4(C)[C@@]3(F)[C@@H](O)C[C@@]21C [Fluticasone, fluticasone propionate]
[1]; max severity Mild
  Treatment-Emergent AE: MYALGIA: 0 (0.0) No. of Patients (%)
  Treatment-Emergent AE: NASAL DISCOMFORT: 0 (0.0) No. of Patients (%)
  Treatment-Emergent AE: NECK PAIN: 0 (0.0) No. of Patients (%)
  Treatment-Emergent AE: NERVOUS SYSTEM DISORDERS, Any Preferred Term: 2 (4.0) No. of Patients (%)
  Treatment-Emergent AE: PHARYNGOLARYNGEAL PAIN: 0 (0.0) No. of Patients (%)
  Treatment-Emergent AE: RESPIRATORY, THORACIC AND MEDIASTINAL DISORDERS, Any Preferred Term: 0 (0.0) No. of Patients (%)
  Treatment-Emergent AE: STOMACH DISCOMFORT: 0 (0.0) No. of Patients (%)
[1]; max severity Moderate
  Treatment-Emergent AE: Any Adverse Event: 1 (2.0) No. of Patients (%)
  Treatment-Emergent AE: DRY MOUTH: 0 (0.0) No. of Patients (%)
  Treatment-Emergent AE: DYSGEUSIA: 0 (0.0) No. of Patients (%)
  Treatment-Emergent AE: EAR AND LABYRINTH DISORDERS, Any Preferred Term: 0 (0.0) No. of Patients (%)
  Treatment-Emergent AE: EAR PAIN: 0 (0.0) No. of Patients (%)
  Treatment-Emergent AE: EPISTAXIS: 0 (0.0) No. of Patients (%)
  Treatment-Emergent AE: GASTROINTESTINAL DISORDERS, Any Preferred Term: 1 (2.0) No. of Patients (%)
  Treatment-Emergent AE: HEADACHE: 0 (0.0) No. of Patients (%)
  Treatment-Emergent AE: MUSCULOSKELETAL AND CONNECTIVE TISSUE DISORDERS, Any Preferred Term: 0 (0.0) No. of Patients (%)
  Treatment-Emergent AE: MYALGIA: 0 (0.0) No. of Patients (%)
  Treatment-Emergent AE: NASAL DISCOMFORT: 0 (0.0) No. of Patients (%)
  Treatment-Emergent AE: NECK PAIN: 0 (0.0) No. of Patients (%)
  Treatment-Emergent AE: NERVOUS SYSTEM DISORDERS, Any Preferred Term: 0 (0.0) No. of Patients (%)
  Treatment-Emergent AE: PHARYNGOLARYNGEAL PAIN: 0 (0.0) No. of Patients (%)
  Treatment-Emergent AE: RESPIRATORY, THORACIC AND MEDIASTINAL DISORDERS, Any Preferred Term: 0 (0.0) No. of Patients (%)
  Treatment-Emergent AE: STOMACH DISCOMFORT: 1 (2.0) No. of Patients (%)
[1]; max severity Severe
  Treatment-Emergent AE: Any Adverse Event: 0 (0.0) No. of Patients (%)
  Treatment-Emergent AE: DRY MOUTH: 0 (0.0) No. of Patients (%)
  Treatment-Emergent AE: DYSGEUSIA: 0 (0.0) No. of Patients (%)
  Treatment-Emergent AE: EAR AND LABYRINTH DISORDERS, Any Preferred Term: 0 (0.0) No. of Patients (%)
  Treatment-Emergent AE: EAR PAIN: 0 (0.0) No. of Patients (%)
  Treatment-Emergent AE: EPISTAXIS: 0 (0.0) No. of Patients (%)
  Treatment-Emergent AE: GASTROINTESTINAL DISORDERS, Any Preferred Term: 0 (0.0) No. of Patients (%)
  Treatment-Emergent AE: HEADACHE: 0 (0.0) No. of Patients (%)
  Treatment-Emergent AE: MUSCULOSKELETAL AND CONNECTIVE TISSUE DISORDERS, Any Preferred Term: 0 (0.0) No. of Patients (%)
  Treatment-Emergent AE: MYALGIA: 0 (0.0) No. of Patients (%)
  Treatment-Emergent AE: NASAL DISCOMFORT: 0 (0.0) No. of Patients (%)
  Treatment-Emergent AE: NECK PAIN: 0 (0.0) No. of Patients (%)
  Treatment-Emergent AE: NERVOUS SYSTEM DISORDERS, Any Preferred Term: 0 (0.0) No. of Patients (%)
  Treatment-Emergent AE: PHARYNGOLARYNGEAL PAIN: 0 (0.0) No. of Patients (%)
  Treatment-Emergent AE: RESPIRATORY, THORACIC AND MEDIASTINAL DISORDERS, Any Preferred Term: 0 (0.0) No. of Patients (%)
  Treatment-Emergent AE: STOMACH DISCOMFORT: 0 (0.0) No. of Patients (%)
[1]; share of treatment group
  adverse event: bitter taste: 2.0%
  adverse event: headache: 4.0%
[2]
  RQLQ Change From Baseline in Activity, LS Mean: −1.52
  RQLQ Change From Baseline in Activity, Mean: −1.50
  RQLQ Change From Baseline in Activity, Median: −1.33
  RQLQ Change From Baseline in Emotional, LS Mean: −1.42
  RQLQ Change From Baseline in Emotional, Mean: −1.50
  RQLQ Change From Baseline in Emotional, Median: −1.25
  RQLQ Change From Baseline in Eye Symptoms, LS Mean: −1.51
  RQLQ Change From Baseline in Eye Symptoms, Mean: −1.53
  RQLQ Change From Baseline in Eye Symptoms, Median: −1.75
  RQLQ Change From Baseline in Nasal Symptoms, LS Mean: −1.72
  RQLQ Change From Baseline in Nasal Symptoms, Mean: −1.74
  RQLQ Change From Baseline in Nasal Symptoms, Median: −1.50
  RQLQ Change From Baseline in Non-nose/eye Symptoms, LS Mean: −1.19
  RQLQ Change From Baseline in Non-nose/eye Symptoms, Mean: −1.23
  RQLQ Change From Baseline in Non-nose/eye Symptoms, Median: −1.14
  RQLQ Change From Baseline in Overall Score, LS Mean: −1.47
  RQLQ Change From Baseline in Overall Score, Mean: −1.49
  RQLQ Change From Baseline in Overall Score, Median: −1.37
  RQLQ Change From Baseline in Practical Problems, LS Mean: −1.74
  RQLQ Change From Baseline in Practical Problems, Mean: −1.76
  RQLQ Change From Baseline in Practical Problems, Median: −1.67
  RQLQ Change From Baseline in Sleep, LS Mean: −1.23
  RQLQ Change From Baseline in Sleep, Mean: −1.26
  RQLQ Change From Baseline in Sleep, Median: −1.33
